# Experimental data taken from the supplement of paper PMC10307832.
# Experiments:
# Assay in all cases: relative viability (nuclei count vs DMSO), 5 days (fraction); higher = more cells survive
# BEN = test system: BEN
# Procedure, shortened: (§1)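 One day after seeding in 1536-well plates, lung cancer cell lines were dosed by pin tool. Dosing was either single-drug or a fixed anchor-drug dose plus five library-drug doses (not always all listed) in √10 steps. After 5 days, nuclei were stained in one fix-and-stain step and counted on 4× images, and relative viability is the nuclei count of treated wells over that of vehicle wells, given as the median of duplicate plates.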
# COR-L 105 = test system: COR-L 105
# Procedure, shortened: as §1
# EKVX = test system: EKVX
# Procedure, shortened: as §1
# EMC-BAC-2 = test system: EMC-BAC-2
# Procedure, shortened: as §1
# EPLC-272H = test system: EPLC-272H
# Procedure, shortened: as §1
# HCC-78 = test system: HCC-78
# Procedure, shortened: as §1
# HCC-827 = test system: HCC-827
# Procedure, shortened: as §1
# LCLC-97TM1 = test system: LCLC-97TM1
# Procedure, shortened: as §1
# LK-2 = test system: LK-2
# Procedure, shortened: as §1
# LOU-NH91 = test system: LOU-NH91
# Procedure, shortened: as §1
# LU99A = test system: LU99A
# Procedure, shortened: as §1
# NCI-H1650 = test system: NCI-H1650
# Procedure, shortened: as §1
# NCI-H2087 = test system: NCI-H2087
# Procedure, shortened: as §1
# NCI-H2126 = test system: NCI-H2126
# Procedure, shortened: as §1
# NCI-H358 = test system: NCI-H358
# Procedure, shortened: as §1
# NCI-H522 = test system: NCI-H522
# Procedure, shortened: as §1
# NCI-H727 = test system: NCI-H727
# Procedure, shortened: as §1
# SK-MES-1 = test system: SK-MES-1
# Procedure, shortened: as §1
# SW 1573 = test system: SW 1573
# Procedure, shortened: as §1
# SW 900 = test system: SW 900
# Procedure, shortened: as §1
smiles,measurement,setting,value
COCC1(CO)C(=O)C2CCN1CC2 (stereo unspecified) [PRIMA-1MET] + O=C(CCCCCCC(=O)Nc1ccccc1)NO [Vorinostat] (partner 1 µM),relative viability,BEN; first compound 0.2 µM,0.664
same,relative viability,BEN; first compound 0.6325 µM,0.389
same,relative viability,BEN; first compound 6.325 µM,0.571
same,relative viability,BEN; first compound 20 µM,0.613
same,relative viability,COR-L 105; first compound 0.2 µM,1.13
same,relative viability,COR-L 105; first compound 0.6325 µM,0.859
same,relative viability,COR-L 105; first compound 2 µM,0.769
same,relative viability,COR-L 105; first compound 6.325 µM,0.771
same,relative viability,COR-L 105; first compound 20 µM,0.196
same,relative viability,EKVX; first compound 0.2 µM,0.995
same,relative viability,EKVX; first compound 0.6325 µM,0.548
same,relative viability,EKVX; first compound 2 µM,0.672
same,relative viability,EKVX; first compound 6.325 µM,0.849
same,relative viability,EKVX; first compound 20 µM,0.64
same,relative viability,EMC-BAC-2; first compound 0.2 µM,0.582
same,relative viability,EMC-BAC-2; first compound 0.6325 µM,0.36
same,relative viability,EMC-BAC-2; first compound 2 µM,0.335
same,relative viability,EMC-BAC-2; first compound 6.325 µM,0.527
same,relative viability,EMC-BAC-2; first compound 20 µM,0.271
same,relative viability,EPLC-272H; first compound 0.2 µM,0.536
same,relative viability,EPLC-272H; first compound 0.6325 µM,0.581
same,relative viability,EPLC-272H; first compound 2 µM,0.417
same,relative viability,EPLC-272H; first compound 6.325 µM,0.534
same,relative viability,EPLC-272H; first compound 20 µM,0.0678
same,relative viability,HCC-78; first compound 0.2 µM,0.624
same,relative viability,HCC-78; first compound 0.6325 µM,0.407
same,relative viability,HCC-78; first compound 2 µM,0.392
same,relative viability,HCC-78; first compound 6.325 µM,0.403
same,relative viability,HCC-78; first compound 20 µM,0.102
same,relative viability,HCC-827; first compound 0.2 µM,0.939
same,relative viability,HCC-827; first compound 0.6325 µM,0.173
same,relative viability,HCC-827; first compound 2 µM,0.661
same,relative viability,HCC-827; first compound 6.325 µM,0.816
same,relative viability,HCC-827; first compound 20 µM,0.855
same,relative viability,LCLC-97TM1; first compound 0.2 µM,0.547
same,relative viability,LCLC-97TM1; first compound 0.6325 µM,0.675
same,relative viability,LCLC-97TM1; first compound 2 µM,0.747
same,relative viability,LCLC-97TM1; first compound 6.325 µM,0.791
same,relative viability,LCLC-97TM1; first compound 20 µM,0.464
same,relative viability,LK-2; first compound 0.2 µM,0.181
same,relative viability,LK-2; first compound 0.6325 µM,0.255
same,relative viability,LK-2; first compound 2 µM,0.166
same,relative viability,LK-2; first compound 6.325 µM,0.325
same,relative viability,LK-2; first compound 20 µM,0.0975
same,relative viability,LOU-NH91; first compound 0.2 µM,0.987
same,relative viability,LOU-NH91; first compound 0.6325 µM,0.878
same,relative viability,LOU-NH91; first compound 2 µM,0.759
same,relative viability,LOU-NH91; first compound 6.325 µM,0.863
same,relative viability,LOU-NH91; first compound 20 µM,0.296
same,relative viability,LU99A; first compound 0.2 µM,0.628
same,relative viability,LU99A; first compound 0.6325 µM,0.342
same,relative viability,LU99A; first compound 2 µM,0.54
same,relative viability,LU99A; first compound 6.325 µM,0.436
same,relative viability,LU99A; first compound 20 µM,0.113
same,relative viability,NCI-H1650; first compound 0.2 µM,0.619
same,relative viability,NCI-H1650; first compound 0.6325 µM,0.403
same,relative viability,NCI-H1650; first compound 2 µM,0.55
same,relative viability,NCI-H1650; first compound 6.325 µM,0.703
same,relative viability,NCI-H1650; first compound 20 µM,0.406
same,relative viability,NCI-H2087; first compound 0.6325 µM,0.479
same,relative viability,NCI-H2087; first compound 2 µM,0.604
same,relative viability,NCI-H2087; first compound 6.325 µM,0.477
same,relative viability,NCI-H2087; first compound 20 µM,0.336
same,relative viability,NCI-H2126; first compound 0.2 µM,0.784
same,relative viability,NCI-H2126; first compound 0.6325 µM,0.796
same,relative viability,NCI-H2126; first compound 2 µM,0.606
same,relative viability,NCI-H2126; first compound 6.325 µM,0.765
same,relative viability,NCI-H2126; first compound 20 µM,0.788
same,relative viability,NCI-H358; first compound 0.2 µM,0.82
same,relative viability,NCI-H358; first compound 0.6325 µM,0.695
same,relative viability,NCI-H358; first compound 2 µM,0.669
same,relative viability,NCI-H358; first compound 6.325 µM,0.786
same,relative viability,NCI-H358; first compound 20 µM,0.163
same,relative viability,NCI-H522; first compound 0.2 µM,0.724
same,relative viability,NCI-H522; first compound 0.6325 µM,0.923
same,relative viability,NCI-H522; first compound 2 µM,0.733
same,relative viability,NCI-H522; first compound 6.325 µM,0.83
same,relative viability,NCI-H522; first compound 20 µM,0.213
same,relative viability,NCI-H727; first compound 0.2 µM,0.732
same,relative viability,NCI-H727; first compound 0.6325 µM,0.394
same,relative viability,NCI-H727; first compound 6.325 µM,1.17
same,relative viability,NCI-H727; first compound 20 µM,0.689
same,relative viability,SK-MES-1; first compound 0.2 µM,1.26
same,relative viability,SK-MES-1; first compound 0.6325 µM,1.08
same,relative viability,SK-MES-1; first compound 2 µM,1.05
same,relative viability,SK-MES-1; first compound 6.325 µM,1.24
same,relative viability,SK-MES-1; first compound 20 µM,1.18
same,relative viability,SW 1573; first compound 0.2 µM,0.83
same,relative viability,SW 1573; first compound 0.6325 µM,0.553
same,relative viability,SW 1573; first compound 2 µM,0.429
same,relative viability,SW 1573; first compound 6.325 µM,0.0463
same,relative viability,SW 1573; first compound 20 µM,0.0325
same,relative viability,SW 900; first compound 0.2 µM,0.58
same,relative viability,SW 900; first compound 0.6325 µM,0.427
same,relative viability,SW 900; first compound 6.325 µM,0.504
same,relative viability,SW 900; first compound 20 µM,0.129
